Consider 30 compounds from article PMC7203576 (Frontiers in Microbiology, 2020).

Assay [1] concerns Magnaporthe oryzae Triticum (MoT) isolate BTJP 4 (5).
For assay [2], the system named is Magnaporthe oryzae Triticum (MoT) on detached wheat leaves cv. BARI Gom 24 (Prodip). Particulars: in vivo.
Assay [3] has as its system Magnaporthe oryzae Triticum (MoT) conidia. Particulars: 50 μg/ml.

Values joined by “and” are separate entries in the source; they are usually repeats but may differ in a detail not shown here. Equal values may be shown once. Read-outs that look alike come from different tables or passages of the source. Marks after values point to notes of the source that are not given here. Residues, ends and D or L forms follow the SMILES beside them. *: point of attachment. Tridecanoyl(3R-OH,11-Me) = CCC(C)CCCCCCC[C@@H](O)CC(=O)*

For the compound `CCCc1c(O)cc(O)c(CCC)c1O` [2,4-Dipropylphloroglucinol (DPPG), 2,4-Dipropylphloroglucinol, reference compound], the “Activity against MoT” value in assay [1] is listed as “Inactive”.
Still for that read-out and setting: the same measure for `Oc1cc(O)cc(O)c1` [Phloroglucinol (PG), Phloroglucinol, reference compound]: “Inactive”; for Oligomycin F [reference compound]: “Active”; for `CC(=O)c1c(O)c(C(C)=O)c(O)c(C(C)=O)c1O` [2,4,6-Triacetylphloroglucinol (TAPG 3), 2,4,6-Triacetylphloroglucinol, reference compound]: “Inactive”.
Still for that read-out and setting: for `C[C@@H]1C/C=C/C=C/C=C/C=C/[C@H](O[C@@H]2O[C@H](C)[C@@H](O)[C@H](N)[C@@H]2O)C[C@@H]2O[C@](O)(C[C@@H](O)C[C@H]3O[C@@H]3/C=C/C(=O)O1)C[C@H](O)[C@H]2C(=O)O` [Natamycin, reference compound] the value was “Inactive”; for `CCCCCCCC/C=C\CCCCCCCc1cc(O)c(C)c(O)c1` [2-Methyl-5-(8Z-heptadecenyl) resorcinol, reference compound], “Inactive”; for `CC1(C)S[C@@H]2[C@H](NC(=O)Cc3ccccc3)C(=O)N2[C@H]1C(=O)O` [Penicillin G, reference compound], “Inactive”.
On the same count and under the same terms, for `CC(=O)c1c(O)cc(O)c(C(C)=O)c1O` [2,4-Diacetylphloroglucinol (DAPG), 2,4-Diacetylphloroglucinol, reference compound] the value was “Inactive”.
Consider Macrolactin B [reference compound], for which the “Activity against MoT” value in assay [1] is “Active”.
Same read-out and setting: the same measure for `C[C@@H]1CCC/C=C/C=C/[C@H](O)C[C@@H](O)C/C=C\C=C\[C@@H](O)C/C=C/C=C\C(=O)O1` [Macrolactin A, reference compound]: “Inactive”.
Same read-out and setting: the same measure for `CCCCCCCC/C=C\CCCCCCCc1cc(O)cc(O)c1` [5-(8Z-Heptadecenyl) resorcinol, reference compound]: “Inactive”; for Gageostatin A [reference compound]: “Inactive”.
As for Gageopeptide D, the “Average lesion length of wheat blast on detached leaves” value (“Average lesion length of wheat blast” for short) in assay [2] is on record as 1.8 ± 0.1 mm. In addition, in assay [1], the “Activity against MoT” value is recorded as “Active”; the “Minimum inhibitory concentration (MIC) on mycelial growth” value (shortened to “Minimum inhibitory concentration (MIC)”) is 2.5 μg/disk; the “Morphology of treated hyphae (microscopy)” value (from here on “Morphology of treated hyphae”) is “disruption of normal polar growth of hyphae by inducing excessive branching and swelling of hyphal tips”; the “Mycelial growth inhibition at the MIC” value turned out to be 20 ± 1.7%. The “Percent inhibition of radial growth (PIRG) of mycelia” value (“Percent inhibition of radial growth” for short) in assay [1] is 45.7 ± 1.6% and 30.5 ± 0.9% and 27.6 ± 0.9%. Besides, in assay [3] (0 h), the “Germinated conidia (% ± SE)” value is 0 ± 0^f % and the “Major morphological change/developmental transitions in the treated conidia” value is given as “No germination”. Besides, the “Major morphological change/developmental transitions in the treated conidia” value in assay [3] (6 h) is on record as “Germinated with a short germ tube”. Besides, the “Major morphological change/developmental transitions in the treated conidia” value in assay [3] (12 h) is “Deformed germ tube (swollen)”. Also, the “Major morphological change/developmental transitions in the treated conidia” value in assay [3] (24 h) is recorded as “No appressoria formed; no mycelial growth took place”. Also, in assay [3] (after 12 h), the “Conidia with abnormally swollen (deformed) germ tubes” value (“Conidia with abnormally swollen” for short) came out at 25 ± 1.7%.
Consider `CCC(C)CCCCCCC[C@@H](O)CC(=O)N[C@@H](CC(C)C)C(=O)N[C@@H](CCC(=O)O)C(=O)N[C@@H](CC(C)C)C(=O)N[C@@H](CC(C)C)C(=O)O` (stereo partly drawn) [Gageopeptide A] ({Tridecanoyl(3R-OH,11-Me)}-LELL-OH), for which, in assay [2], the “Average lesion length of wheat blast” value came to 1.5 ± 0.2 mm. In assay [1], the “Activity against MoT” value is recorded as “Active”; the “Minimum inhibitory concentration (MIC)” value is 10.0 μg/disk and 10 μg/disk; the “Morphology of treated hyphae” value is “remarkable increase in branch frequency per unit length of hyphae, reduced polar growth, and irregular swelling of the hyphal tips”; the “Mycelial growth inhibition at the MIC” value is 12.5 ± 1.8%. Also, in assay [1], the “Percent inhibition of radial growth” value turned out to be 50.5 ± 0.9%. Also, in assay [3] (0 h), the “Germinated conidia (% ± SE)” value was 0 ± 0^f % and the “Major morphological change/developmental transitions in the treated conidia” value is reported as “No germination”. Also, the “Major morphological change/developmental transitions in the treated conidia” value in assay [3] (6 h) was “Germinated with a short germ tube”. Also, the “Major morphological change/developmental transitions in the treated conidia” value in assay [3] (12 h) is recorded as “Normal germ tube”. In assay [3] (24 h), the “Major morphological change/developmental transitions in the treated conidia” value was “Normal appressoria formed; no mycelial growth took place” and the “Inhibition of mycelial growth from germinated conidia” value was determined as 100%. For the same compound, the “Conidia with normal germ tube” value in assay [3] (after 12 h) was determined as 31 ± 1.7%. The “Conidia producing normal appressoria” value in assay [3] (after 24 h) stood at 27 ± 1.5%.
On to `COC1=CC(=O)C(O)=C(CCCCCCC/C=C\CCCCCCCC2=C(O)C(=O)C=C(OC)C2=O)C1=O` [Ardisiaquinone A, reference compound], for which the “Activity against MoT” value in assay [1] was “Inactive”.
On the same count and under the same terms, the same measure for Gageostatin C [reference compound]: “Inactive”; for `CCC(O)CC1CCC(C(C)C(=O)OC(C)CC2CCC(C(C)C(=O)O)O2)O1` (stereo not drawn) [Bonactin, reference compound]: “Active”.
As for `CC[C@H]1/C=C/C=C/C[C@@H](C)[C@H](O)[C@@](C)(O)C(=O)[C@@H](C)[C@H](O)[C@@H](C)C(=O)[C@@H](C)[C@H](O)[C@@H](C)/C=C/C(=O)O[C@@H]2[C@H](C)[C@H](CC1)O[C@@]1(O[C@@H](C[C@@H](C)O)[C@@H](C)CC1=O)[C@H]2C` [Oligomycin B, reference compound], the “Activity against MoT” value in assay [1] is recorded as “Active”.
As for `CCCCCC[C@H]1C(=O)O[C@H](C)[C@H](NC(=O)c2cccc(NC=O)c2O)C(=O)O[C@@H](C)[C@@H]1OC(=O)CC(C)C` [Antimycin-A, reference compound], in assay [1], the “Activity against MoT” value is recorded as “Active”.
Turning to `C[C@H]1CCC/C=C\C=C\[C@H](O)C[C@@H](O)C/C=C\C=C\[C@@H](OC(=O)CCC(=O)O[C@H]2O[C@@H](CO)[C@H](O)[C@@H](O)[C@@H]2O)C/C=C/C=C\C(=O)O1` [Macrolactin W, reference compound], the “Activity against MoT” value in assay [1] is reported as “Inactive”.
Regarding `CN[C@@H]1C[C@H]2O[C@@](C)([C@@H]1OC)n1c3ccccc3c3c4c(c5c6ccccc6n2c5c31)C(=O)NC4` [Staurosporine, reference compound], the “Activity against MoT” value in assay [1] is “Active”.
Consider `CC[C@@H](O)C[C@@H]1CC[C@@H](O)[C@@H](C)C(=O)O[C@@H](C)C[C@H]2CC[C@H](O2)[C@H](C)C(=O)O1` [Feigrisolide C, reference compound], for which the “Activity against MoT” value in assay [1] was “Active”.
With Gageopeptide C, in assay [2], the “Average lesion length of wheat blast” value amounted to 1.8 ± 0.1 mm. Further, in assay [1], the “Activity against MoT” value is listed as “Active”; the “Minimum inhibitory concentration (MIC)” value was determined as 2.5 μg/disk; the “Morphology of treated hyphae” value was “extensive branching, irregular growth, and swelling in MoT hyphae”; the “Mycelial growth inhibition at the MIC” value stood at 42.9 ± 1.6%. Also, the “Percent inhibition of radial growth” value in assay [1] was 58.1 ± 0.9% and 54.3 ± 1.6% and 49.5 ± 0.9%. Moreover, in assay [3] (0 h), the “Germinated conidia (% ± SE)” value is given as 0 ± 0^f % and the “Major morphological change/developmental transitions in the treated conidia” value was “No germination”. Besides, the “Major morphological change/developmental transitions in the treated conidia” value in assay [3] (6 h) is listed as “Germinated with a short germ tube”. Further, in assay [3] (12 h), the “Major morphological change/developmental transitions in the treated conidia” value was “Deformed germ tube (swollen)”. Moreover, the “Major morphological change/developmental transitions in the treated conidia” value in assay [3] (24 h) is 30% Normal appressoria and 11% abnormal appressoria (low melanization) formed but no mycelial growth took place. Also, in assay [3] (after 12 h), the “Conidia with abnormally swollen” value was found to be 10 ± 1.5%. In assay [3] (after 24 h), the “Conidia producing abnormal appressoria (low melanization)” value was 11 ± 0.7% and 11%; the “Conidia producing normal appressoria” value is 30 ± 0.7% and 30%.
For Neomycin [reference compound], the “Activity against MoT” value in assay [1] is given as “Active”.
On the same count and under the same terms, the same measure for Gageostatin B [reference compound]: “Inactive”.
Take Gageopeptide B: the “Average lesion length of wheat blast” value in assay [2] is recorded as 1.6 ± 0.2 mm. Besides, in assay [1], the “Activity against MoT” value is listed as “Active”; the “Minimum inhibitory concentration (MIC)” value is 10.0 μg/disk and 10 μg/disk; the “Morphology of treated hyphae” value was “swelling of hyphal cells, hyper-branching, loss of apical growth, and swelling of hyphal tips”; the “Mycelial growth inhibition at the MIC” value amounted to 11.5 ± 1.6%. In assay [1], the “Percent inhibition of radial growth” value is reported as 54.3 ± 3.3%. Moreover, in assay [3] (0 h), the “Germinated conidia (% ± SE)” value is 0 ± 0^f % and the “Major morphological change/developmental transitions in the treated conidia” value is given as “No germination”. The “Major morphological change/developmental transitions in the treated conidia” value in assay [3] (6 h) is listed as “Germinated with a short germ tube”. Further, the “Major morphological change/developmental transitions in the treated conidia” value in assay [3] (12 h) is recorded as “Deformed germ tube (swollen)”. Also, the “Major morphological change/developmental transitions in the treated conidia” value in assay [3] (24 h) was “No appressoria formed; no mycelial growth took place”. The “Conidia with abnormally swollen” value in assay [3] (after 12 h) worked out at 51 ± 2.1%.
On to `CC(=O)c1c(O)cc(O)cc1O` [Monoacetylphloroglucinol (MAPG), Monoacetylphloroglucinol, reference compound], for which, in assay [1], the “Activity against MoT” value is on record as “Inactive”.
Turning to Gageotetrin C [reference compound], the “Activity against MoT” value in assay [1] is given as “Inactive”.
As for Gageotetrin A [reference compound], the “Activity against MoT” value in assay [1] is on record as “Inactive”.
With `COc1ccc2c(c[n+](C)c3c4cc5c(cc4ccc23)OCO5)c1OC` [Chelerythrine chloride, reference compound], in assay [1], the “Activity against MoT” value is “Active”.
